Results on 30 molecules are retold here after PubChem BioAssay (NCI).

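Cultured in 96-well plates, cells were exposed to test compound for 48 hours across five concentrations. TGI: total growth inhibition.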 A value given as a limit tells only on which side of the number the result lay.

Test systems include UO-31 renal; DMS 114 small cell lung; A549 NSCLC; SNB-78 CNS; HOP-18 NSCLC; DMS 273 small cell lung; EKVX NSCLC; LXFL 529 NSCLC; KM20L2 colon; DLD-1 colon; XF 498 CNS; SR leukemia; RPMI-8226 leukemia.
What all share (assay): growth of human tumour cells (NCI), 48 h

As for `COc1ccccc1OCC(COC(=O)Nc1ccccc1)OC(=O)Nc1ccccc1` (stereo not drawn), the TGI in the assay on UO-31 renal, with DMS 114 small cell lung, in the assay with A549 NSCLC, with SNB-78 CNS, in the assay with HOP-18 NSCLC and in the assay with DMS 273 small cell lung was over 100 µM in each case. In addition, the TGI with EKVX NSCLC, in the assay with LXFL 529 NSCLC, in the assay with KM20L2 colon, with DLD-1 colon and in the assay on XF 498 CNS was over 100 µM throughout.
For `CC(C(=O)OCc1ccccc1)N(Cc1ccccc1)Cc1ccccc1` (stereo not drawn), the TGI in the assay on UO-31 renal, in the assay with DMS 114 small cell lung, in the assay on A549 NSCLC, in the assay on SNB-78 CNS, with DMS 273 small cell lung and in the assay on EKVX NSCLC was over 100 µM each time. Also, the TGI in the assay with SR leukemia is over 100 µM; in the assay on LXFL 529 NSCLC it was over 100 µM; with KM20L2 colon, over 100 µM; with DLD-1 colon, over 100 µM; in the assay with RPMI-8226 leukemia, over 100 µM; in the assay on XF 498 CNS, 77.7 µM.
`CC[C@@]1(O)C(=O)OCc2c1cc1n(c2=O)Cc2c-1nc1ccc(O)cc1c2[Si](C)(C)C(C)(C)C`: the TGI is 0.0357 µM in the assay with UO-31 renal; 1.19 µM in the assay on A549 NSCLC; 15.8 µM with EKVX NSCLC; under 0.0112 µM with SR leukemia; 4.77 µM in the assay with RPMI-8226 leukemia.
In the same order, the values of `O=C1NC(=O)c2ccccc2/C1=C/c1ccc2c(c1)OCO2` are 32.4 µM, over 100 µM, over 100 µM, over 100 µM and 74.3 µM.
In the same order, the values of `CCCC[C@@H](C)/C=C1\CN2CCC[C@H]2[C@@](C)(OCc2ccccc2)[C@@H]1O` are over 16.6 µM, over 50 µM, over 50 µM, over 50 µM and over 23.7 µM.
In the same order, the values of `CCN1C/C(=C\c2ccc(Cl)cc2)c2nc(N)c(C#N)c(-c3ccc(Cl)cc3)c2C1` are over 100 µM, over 100 µM, over 100 µM, over 100 µM and over 100 µM.
Regarding `O[C@@H]1C=C[C@]23CCN(Cc4cc5c(cc42)OCO5)[C@@H]3C1`, the TGI with UO-31 renal, in the assay on A549 NSCLC, with EKVX NSCLC, with SR leukemia and in the assay with RPMI-8226 leukemia was over 100 µM each time.
Regarding `O=C1COc2cc(N3CCN(c4cccc(C(F)(F)F)c4)CC3)ccc2N1`, the TGI with UO-31 renal, in the assay on A549 NSCLC, in the assay on EKVX NSCLC, in the assay on SR leukemia and with RPMI-8226 leukemia was over 100 µM throughout.
Regarding `CC(C)(C)C1CCC2c3c([nH]c4ccccc34)C3C(=O)N(c4ccc(C#N)cc4)C(=O)C3C2C1` (stereo not drawn), the TGI in the assay on UO-31 renal was 33.2 µM; in the assay with A549 NSCLC, 63.5 µM; in the assay with EKVX NSCLC it was 41.2 µM; in the assay on SR leukemia, over 100 µM; in the assay on RPMI-8226 leukemia, over 100 µM.
Consider `Cc1cn(C2CCC(CO)(CF)O2)c(=O)[nH]c1=O` (stereo not drawn), for which the TGI with UO-31 renal, in the assay with A549 NSCLC, in the assay on EKVX NSCLC, in the assay on SR leukemia and in the assay on RPMI-8226 leukemia was over 100 µM throughout.
In the case of `CN1/C(=C/C=C/C=C/C=C2C(=O)c3ccccc3C2=O)C(C)(C)c2ccccc21`, the TGI in the assay on UO-31 renal, in the assay on A549 NSCLC, in the assay with EKVX NSCLC, in the assay with SR leukemia and with RPMI-8226 leukemia was over 100 µM throughout.
As for `CC1C(NNC(N)=O)Oc2cc3c(cc2C1c1ccccc1O)OCO3` (stereo not drawn), the TGI was over 100 µM in the assay on UO-31 renal; over 100 µM in the assay with A549 NSCLC; over 100 µM in the assay on EKVX NSCLC; 43.1 µM in the assay on SR leukemia; 78.6 µM in the assay on RPMI-8226 leukemia.
For `NS(=O)(=O)c1nc(S(=O)(=O)O)c2[nH]cnc2n1`, the TGI in the assay on UO-31 renal, in the assay on A549 NSCLC, in the assay with EKVX NSCLC, in the assay on SR leukemia and in the assay with RPMI-8226 leukemia was over 100 µM each time.
Regarding `C/C=C(\C)C(=O)OC1CC(OC(C)=O)C2(C(=O)OC)COC3C2C1(C)C1C2(C(=O)OC)OCC1(C3O)C1(O)C3CC(C4(O)C=COC4O3)C1(C)O2` (stereo not drawn), the TGI with UO-31 renal, with A549 NSCLC, in the assay on EKVX NSCLC, in the assay on SR leukemia and in the assay with RPMI-8226 leukemia was over 100 µM each time.
For `CC(=O)n1cc(C2CC23N=C(c2ccccc2)OC3=O)c2ccccc21` (stereo not drawn), the TGI with UO-31 renal came out at 30.9 µM; with A549 NSCLC, 59.9 µM; in the assay with EKVX NSCLC, 51.1 µM; in the assay on SR leukemia, 40.3 µM; in the assay with RPMI-8226 leukemia, 26.2 µM.
In the same order, the values of `COc1ccc(C#Cn2nnc3ccccc32)cc1` are 4.47 µM, over 100 µM, over 100 µM, over 100 µM and 85.1 µM.
The corresponding values for `Cc1ccc(S(=O)(=O)NC(CCC(=O)NNc2ccccc2)C(=O)NNc2ccccc2)cc1` (stereo not drawn) are over 100 µM, 48.8 µM, over 100 µM, over 100 µM and over 100 µM.
The corresponding values for `COc1cccc(N=N/C(=N/NC(=O)c2ccc(C)cc2)c2ccc(N(CCC#N)CCC#N)cc2OC)c1` are over 100 µM, over 100 µM, 37.4 µM, over 100 µM and over 100 µM.
For the molecule `COC(=O)C1=C(OC(=O)/C(=C/c2ccccc2)c2ccc(OC)cc2)C(C(=O)OC)[C@@]2(O)[C@@H](C(=O)OC)[C@H](C)C[C@@H]1[C@@H]2C(=O)OC` (stereo partly drawn), the TGI with UO-31 renal, in the assay on A549 NSCLC, in the assay on EKVX NSCLC, in the assay with SR leukemia and with RPMI-8226 leukemia was over 100 µM throughout.
As for `Cc1cc(C)c2c(c1)CC1(Cc3cc(C)c(C)cc3C1=O)C2=O` (stereo not drawn), the TGI in the assay on UO-31 renal, in the assay with A549 NSCLC, in the assay with EKVX NSCLC, in the assay on SR leukemia and with RPMI-8226 leukemia was over 100 µM each time.
Consider `CCOC(=O)c1ccc(Nc2nc3ccccc3nc2-c2cccs2)cc1`, for which the TGI with UO-31 renal, in the assay on A549 NSCLC, with EKVX NSCLC, with SR leukemia and in the assay with RPMI-8226 leukemia was over 100 µM throughout.
Regarding `N#Cc1c(-c2ccc(Cl)cc2)cc(-c2ccc(Nc3ccnc4cc(Cl)ccc34)cc2)[nH]c1=O`, the TGI in the assay with UO-31 renal, in the assay on A549 NSCLC, in the assay on EKVX NSCLC, in the assay on SR leukemia and in the assay with RPMI-8226 leukemia was over 100 µM each time.
Take `Cc1c(C(=O)c2ccc(N)c3ccccc23)c2ccccc2n1CCN1CCOCC1`: the TGI in the assay with UO-31 renal was 86.6 µM; in the assay with A549 NSCLC, 99.1 µM; with EKVX NSCLC, over 92.2 µM; with SR leukemia, over 85.3 µM; in the assay with RPMI-8226 leukemia it was over 61.1 µM.
For the molecule `O=C(Nc1sccc1S(=O)(=O)c1ccc(Cl)cc1)c1ccc(F)cc1F`, the TGI in the assay with UO-31 renal is 47.7 µM; in the assay with A549 NSCLC, over 100 µM; in the assay with EKVX NSCLC, 43.5 µM; in the assay with SR leukemia, 40.9 µM; with RPMI-8226 leukemia, over 100 µM.
For the molecule `O=P1(N2CCOCC2)OCCO1`, the TGI with UO-31 renal, with A549 NSCLC, in the assay with EKVX NSCLC, with SR leukemia and in the assay on RPMI-8226 leukemia was over 100 µM throughout.
Consider `Fc1cccc(F)c1C1SCc2nc3cc(Cl)c(Cl)cc3n21` (stereo not drawn), for which the TGI with UO-31 renal, in the assay with A549 NSCLC, in the assay on EKVX NSCLC, with SR leukemia and in the assay with RPMI-8226 leukemia was over 100 µM in each case.
As for `O=C(c1ccccc1)c1ccc2nc(-c3c(Cl)c(Cl)c(Cl)c(Cl)c3-c3nnc(-c4ccccc4)o3)[nH]c2c1`, the TGI was over 100 µM in the assay with UO-31 renal; over 100 µM in the assay with A549 NSCLC; over 100 µM in the assay on EKVX NSCLC; 50.2 µM in the assay with SR leukemia; over 100 µM with RPMI-8226 leukemia.
With `FC(F)(F)c1cc(N(C2c3ccccc3C=Cc3ccccc32)P(Cl)Cl)cc(C(F)(F)F)c1`, the TGI in the assay with UO-31 renal is 33.4 µM; with A549 NSCLC, 44.1 µM; in the assay with EKVX NSCLC it was 38.6 µM; with SR leukemia, 46.9 µM; in the assay with RPMI-8226 leukemia, 51.2 µM.
The corresponding values for `CCOC(=O)/C(C(N)=O)=C(\O)C(=O)/C(Br)=C(\O)c1ccccc1` are 39.6 µM, 43.5 µM, 52.8 µM, 12.1 µM and 29.4 µM.
Take `C[C@@H]1[C@@H](C)C(c2ccccc2)O[Si]1(C(C)(C)C)C(C)(C)C` (stereo partly drawn): the TGI was determined as 31 µM in the assay with UO-31 renal; 30.3 µM with A549 NSCLC; 33.4 µM in the assay on EKVX NSCLC; 29.3 µM with SR leukemia; 50.3 µM in the assay with RPMI-8226 leukemia.
